In US9243039B2, “Bipartite inhibitors of bacterial RNA polymerase: Sal-target-inhibitor/nucleoside-analog-inhibitor conjugates” (priority 2012, dated 2016):
≈ marks a conversion by molar mass, not a printed value. *1 amine or outer side, *2 acyl side, *3 side chain or, on linkers, in order; H or OH if unused. Where a SMILES comes first, the peptide text is derived from it. Bridges are numbered along the chain shown (N, C = ends). [ ]: non-standard residue; d: D form. The star is where a group is joined. X5 = C[C@@H](Oc1ccc([C@H](N[*:1])C(=O)[*:2])cc1)[C@](O)(/C=C/C(=O)[*:3])CNCCCNC(=O)OC(C)(C)C; X2 = CCCCOC[C@@](O)(/C=C/C(=O)[*:3])[C@@H](C)Oc1ccc([C@H](N[*:1])C(=O)[*:2])cc1; X6 = CCCCOC(/C=C/C(=O)[*:3])(CO)[C@@H](C)Oc1ccc([C@H](N[*:1])C(=O)[*:2])cc1; Pentanoyl(2R-Me,3R-OH,4-Me) = CC(C)[C@@H](O)[C@@H](C)C(=O)*; d(aIle) = CC[C@H](C)[C@@H](N)C(=O)O; d(aThr) = C[C@@H](O)[C@@H](N)C(=O)O; NMeF = CN[C@@H](Cc1ccccc1)C(=O)O

Experiments:
Sal-resistant mutants = experiment: Cross-resistance of Sal-resistant mutants to other RNAP inhibitors; type: cell-based; conditions: disclosed herein
Haemophilus influenzae = experiment: Antibacterial activity, broth microdilution, Haemophilus influenzae; type: cell-based; conditions: in words, Gram-negative bacterial pathogen
Source text: (§1) Antibacterial activity was quantified using broth microdilution [Clinical and Laboratory Standards Institute (CLSUNCCLS), Methods for Dilution Antimicrobial Susceptibility Tests for Bacteria That Grow Aerobically; Approved Standard, Eighth Edition. CLIS Document M07-A8 (CLIS, Wayne Pa.), 2009]. Assays with Enterobacter cloacae ATCC 13047, Pseudomonas aeruginosa ATCC10145, and Escherichia coli D21f2to1C, employed a starting cell density of 2-5×10^5 cfu/ml, Mueller Hinton II cation adjusted broth (BD Biosciences, Inc.), and an air atmosphere. Assays with Haemophilus influenzae ATCC49247 and Neisseria gonorrhoeae ATCC 19424 employed a starting cell density of 2-5×10^5 cfu/ml, Haemophilus Test Medium broth (Barry et al., 1993) and a 5% CO2/95% air atmosphere. MIC50 was defined as the minimal concentration resulting in ≧50% inhibition of bacterial growth.

[1] = test system: Gram-positive bacterial pathogens; conditions: in words, reported previously (Trischman 1994; Moore 1999); cited from earlier work
Vero E6 ATCC CRL1586 = experiment: Cytotoxicity to mammalian cells in culture (CellTiter96); type: cell-based
Source text: MICs for mammalian cells (Vero E6) in culture were quantified using CellTiter96 assay (Promega. Inc.; procedures as specified by the manufacturer). Screening data for SalA and SalB (compounds 1 and 2) and representative compounds of this invention (compounds 3-9) are presented in Tables 1-2: […]

Escherichia coli RNAP = Escherichia coli RNAP (Escherichia coli, UniProt P0A8T7+P0A8V2); experiment: Fluorescence-detected RNAP assay, Escherichia coli RNAP; type: biochemical; conditions: fluorescent-detected RNAP assays
Escherichia coli RNAP, sequence (P0A800 whole entry, the tested form may be a part): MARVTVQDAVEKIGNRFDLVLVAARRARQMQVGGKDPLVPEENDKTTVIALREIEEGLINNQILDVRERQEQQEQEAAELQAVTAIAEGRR
Escherichia coli RNAP, sequence (P00579 whole entry, further chain, the tested form may be a part): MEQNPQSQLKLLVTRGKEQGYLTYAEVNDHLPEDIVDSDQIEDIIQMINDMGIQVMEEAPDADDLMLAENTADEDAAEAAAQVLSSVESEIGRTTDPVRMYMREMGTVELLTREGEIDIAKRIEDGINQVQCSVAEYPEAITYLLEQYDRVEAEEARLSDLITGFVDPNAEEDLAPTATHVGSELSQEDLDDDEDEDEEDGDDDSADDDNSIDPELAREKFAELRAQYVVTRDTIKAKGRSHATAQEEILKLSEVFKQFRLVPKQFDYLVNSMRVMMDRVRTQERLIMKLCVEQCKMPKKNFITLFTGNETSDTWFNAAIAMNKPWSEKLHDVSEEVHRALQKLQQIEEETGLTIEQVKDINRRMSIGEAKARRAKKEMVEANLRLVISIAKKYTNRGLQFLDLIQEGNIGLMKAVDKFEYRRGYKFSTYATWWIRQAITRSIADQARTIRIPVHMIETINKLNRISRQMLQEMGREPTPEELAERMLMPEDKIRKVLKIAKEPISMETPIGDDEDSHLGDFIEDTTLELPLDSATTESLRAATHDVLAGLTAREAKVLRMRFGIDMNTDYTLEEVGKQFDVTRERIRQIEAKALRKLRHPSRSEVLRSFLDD
Escherichia coli RNAP, sequence (P0A8V2 whole entry, the tested form may be a part): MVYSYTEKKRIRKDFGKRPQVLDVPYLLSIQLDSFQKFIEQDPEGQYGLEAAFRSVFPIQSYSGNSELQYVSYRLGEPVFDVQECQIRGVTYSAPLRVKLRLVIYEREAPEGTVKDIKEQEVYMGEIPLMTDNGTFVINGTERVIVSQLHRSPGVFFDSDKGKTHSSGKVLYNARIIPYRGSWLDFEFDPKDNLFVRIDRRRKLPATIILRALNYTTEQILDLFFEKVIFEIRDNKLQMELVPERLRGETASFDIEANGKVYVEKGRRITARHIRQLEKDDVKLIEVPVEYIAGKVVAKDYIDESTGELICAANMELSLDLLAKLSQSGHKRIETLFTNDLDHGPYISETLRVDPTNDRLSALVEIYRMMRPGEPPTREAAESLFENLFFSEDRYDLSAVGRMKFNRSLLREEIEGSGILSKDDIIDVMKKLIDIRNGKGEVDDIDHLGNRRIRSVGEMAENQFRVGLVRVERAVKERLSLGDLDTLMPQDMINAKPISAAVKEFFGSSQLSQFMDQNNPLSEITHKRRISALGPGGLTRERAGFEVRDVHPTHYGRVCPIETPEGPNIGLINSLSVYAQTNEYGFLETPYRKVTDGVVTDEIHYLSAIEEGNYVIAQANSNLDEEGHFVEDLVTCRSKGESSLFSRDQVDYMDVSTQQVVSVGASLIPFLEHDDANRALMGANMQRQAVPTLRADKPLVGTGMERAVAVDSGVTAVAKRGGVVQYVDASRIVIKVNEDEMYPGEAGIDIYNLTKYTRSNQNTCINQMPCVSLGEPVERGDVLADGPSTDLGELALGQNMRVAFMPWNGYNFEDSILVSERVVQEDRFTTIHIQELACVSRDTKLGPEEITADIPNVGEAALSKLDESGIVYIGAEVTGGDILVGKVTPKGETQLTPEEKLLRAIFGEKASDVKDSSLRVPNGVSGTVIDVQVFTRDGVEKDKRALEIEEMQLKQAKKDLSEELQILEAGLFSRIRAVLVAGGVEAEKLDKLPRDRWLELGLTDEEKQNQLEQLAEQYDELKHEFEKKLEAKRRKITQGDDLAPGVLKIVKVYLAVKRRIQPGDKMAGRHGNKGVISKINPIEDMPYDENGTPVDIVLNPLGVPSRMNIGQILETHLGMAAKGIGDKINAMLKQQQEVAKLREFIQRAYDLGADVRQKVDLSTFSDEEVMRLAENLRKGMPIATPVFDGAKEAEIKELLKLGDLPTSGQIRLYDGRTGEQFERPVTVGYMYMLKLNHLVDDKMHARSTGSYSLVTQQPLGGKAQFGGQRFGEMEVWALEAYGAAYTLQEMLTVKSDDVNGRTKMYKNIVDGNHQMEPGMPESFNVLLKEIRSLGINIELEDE
Escherichia coli RNAP, sequence (P0A8T7 whole entry, the tested form may be a part): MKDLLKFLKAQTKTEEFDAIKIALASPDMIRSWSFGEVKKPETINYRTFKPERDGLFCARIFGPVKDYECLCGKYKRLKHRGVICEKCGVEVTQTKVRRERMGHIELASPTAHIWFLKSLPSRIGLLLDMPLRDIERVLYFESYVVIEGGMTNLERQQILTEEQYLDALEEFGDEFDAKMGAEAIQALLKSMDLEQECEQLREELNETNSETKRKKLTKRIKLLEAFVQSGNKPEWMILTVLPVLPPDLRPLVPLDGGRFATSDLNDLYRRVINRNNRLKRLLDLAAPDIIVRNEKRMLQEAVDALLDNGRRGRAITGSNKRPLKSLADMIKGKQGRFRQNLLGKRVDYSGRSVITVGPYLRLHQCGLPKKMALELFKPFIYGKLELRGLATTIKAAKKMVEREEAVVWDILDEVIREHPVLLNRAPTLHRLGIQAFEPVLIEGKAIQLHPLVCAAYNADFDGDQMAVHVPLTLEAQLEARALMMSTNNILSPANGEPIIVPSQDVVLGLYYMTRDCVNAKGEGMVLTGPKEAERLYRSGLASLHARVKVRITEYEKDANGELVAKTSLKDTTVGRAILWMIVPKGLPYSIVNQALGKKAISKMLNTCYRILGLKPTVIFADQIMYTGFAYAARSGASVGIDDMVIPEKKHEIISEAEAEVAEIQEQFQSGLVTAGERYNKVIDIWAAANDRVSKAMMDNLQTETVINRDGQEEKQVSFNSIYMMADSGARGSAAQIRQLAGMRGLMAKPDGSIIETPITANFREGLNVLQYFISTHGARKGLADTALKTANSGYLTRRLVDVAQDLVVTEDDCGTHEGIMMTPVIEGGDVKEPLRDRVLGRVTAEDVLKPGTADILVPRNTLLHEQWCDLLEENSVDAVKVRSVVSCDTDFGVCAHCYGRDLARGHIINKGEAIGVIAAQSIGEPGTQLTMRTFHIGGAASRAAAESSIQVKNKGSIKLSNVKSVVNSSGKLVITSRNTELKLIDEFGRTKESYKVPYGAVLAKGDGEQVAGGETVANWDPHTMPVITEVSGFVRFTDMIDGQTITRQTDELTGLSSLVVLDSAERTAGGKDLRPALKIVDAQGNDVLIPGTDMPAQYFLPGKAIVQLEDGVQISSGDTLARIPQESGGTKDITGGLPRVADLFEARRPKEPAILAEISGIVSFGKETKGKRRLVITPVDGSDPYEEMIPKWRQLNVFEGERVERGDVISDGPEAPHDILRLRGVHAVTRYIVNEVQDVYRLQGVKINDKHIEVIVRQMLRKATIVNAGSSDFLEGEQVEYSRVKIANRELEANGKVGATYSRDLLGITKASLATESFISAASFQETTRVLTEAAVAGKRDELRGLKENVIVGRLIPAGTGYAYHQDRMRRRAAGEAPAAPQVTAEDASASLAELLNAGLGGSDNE
Escherichia coli RNAP, sequence (P0A7Z4 whole entry, further chain, the tested form may be a part): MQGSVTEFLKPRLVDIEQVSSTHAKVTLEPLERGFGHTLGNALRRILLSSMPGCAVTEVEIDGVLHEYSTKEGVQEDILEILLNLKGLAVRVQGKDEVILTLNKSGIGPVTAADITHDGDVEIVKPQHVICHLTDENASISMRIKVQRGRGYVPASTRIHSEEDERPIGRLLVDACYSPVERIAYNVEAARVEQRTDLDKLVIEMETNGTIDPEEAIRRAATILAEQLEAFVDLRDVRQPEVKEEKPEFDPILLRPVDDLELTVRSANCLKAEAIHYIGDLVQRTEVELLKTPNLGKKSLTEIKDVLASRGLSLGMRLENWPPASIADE
Method: Fluorescence-detected RNAP assays with Escherichia coli RNAP were performed by a modification of the procedure of Kuhlman et al., 2004 [Kuhlman et al., Anal. Biochem. 324:183-190, 2004]. Reaction mixtures contained (20 μl): […] test compound, 75 nM Escherichia coli RNAP […] holoenzyme, 20 nM 384 by DNA fragment containing the bacteriophage T4 N25 promoter, 100 μM ATP, 100 μM GTP, 100 μM UTP, 100 μM CTP, 50 mM Tris-HCl, pH 8.0, 100 mM KCl, 10 mM MgCl2, 1 mM DTT, 10 μg/ml bovine serum albumin, and 5.5% glycerol. Reaction components other than DNA and NTPs were pre-incubated for 10 min at 37° C. Reactions were carried out by addition of DNA and incubation for 5 min at 37° C., followed by addition of NTPs and incubation for 60 min at 37° C. DNA was removed by addition of 1 μl 5 mM CaCl2 and 2 U DNaseI (Ambion, Inc.), followed by incubation for 90 min at 37° C. RNA was quantified by addition of 100 μl RiboGreen RNA Quantitation Reagent (Invitrogen, Inc.; 1:500 dilution in Tris-HCl, pH 8.0, 1 mM EDTA), followed by incubation for 10 min at 25° C., followed by measurement of fluorescence intensity [excitation wavelength=485 nm and emission wavelength=535 nm; QuantaMaster QM1 spectrofluorometer (PTI, Inc.)].
(§2) Half-maximal inhibitory concentrations (IC50s) were calculated by non-linear regression in SigmaPlot (SPSS, Inc.).

[2] = test system: Gram-positive and Gram-negative bacterial RNAP; experiment: Inhibition of bacterial RNAP in vitro (radiochemical RNAP assays); type: biochemical; conditions: in words, disclosed herein
Method: Radiochemical RNAP assays with Escherichia coli RNAP and Staphylococcus aureus RNAP were performed as follows: Reaction mixtures contained (10 μl): 0-100 μM test compound, bacterial RNAP holoenzyme [75 nM Escherichia coli RNAP holoenzyme (prepared as in Mukhopadhyay et al., Meths. Enzymol. 371:144-159, 2003) or 75 nM Staphylococcus aureus RNAP core enzyme and 300 nM Staphylococcus aureus σ^A (prepared as in Srivastava et al., Curr. Opin. Microbiol. 14:532-543, 2011)], 20 nM DNA fragment N25-lacUV5-14 [positions −100 to −1 of the bacteriophage T5 N25 promoter followed by positions +1 to +29 of the lacUV5(+10A; +15C) promoter; prepared by PCR amplification of a synthetic nontemplate-strand oligodeoxyribonucleotide], 0.5 mM ApA, 100 μM [α^32P]UTP (0.2 Bq/fmol), 100 μM ATP, and 100 μM GTP in TB (50 mM Tris-HCl, pH 7.9, 100 mM KCl, 10 mM MgCl2, 1 mM DTT, 100 μg/ml bovine serum albumin, and 5% glycerol). […] Products were applied to 7 M urea 15% polyacrylamide (19:1 acrylamide:bisacrylamide) slab gels (Bio-Rad), electrophoresed in TBE (90 mM Tris-borate, pH 8.0, and 2 mM EDTA), and analyzed by storage-phosphor scanning (Typhoon; GE Healthcare, Inc.).
as §2

Neisseria gonorrhoeae = experiment: Antibacterial activity, broth microdilution, Neisseria gonorrhoeae; type: cell-based; conditions: in words, Gram-negative bacterial pathogen
Source text: as §1

[3] = test system: Escherichia coli D21f2toIC; experiment: Antibacterial activity, broth microdilution, Escherichia coli D21f2tolC; type: cell-based; conditions: for MIC50: Escherichia coli, D21F2TOIC, read-out: MIC50 Escherichia coli D21f2toIC
Source text: as §1

Pseudomonas aeruginosa = experiment: Antibacterial activity, broth microdilution, Pseudomonas aeruginosa; type: cell-based; conditions: in words, Gram-negative bacterial pathogen
Source text: as §1

human RNAP I/II/III = experiment: Radiochemical assay with human RNAP I, II and III (HeLaScribe nuclear extract); type: biochemical
Method: Radiochemical assays with human RNAP I, II, and III were performed essentially as described [Sawadogo and Roeder, Cell 43:165-75, 1985]. Reaction mixtures contained (20 μl): 0-100 μM test compound, 8 U HeLaScribe Nuclear Extract (Promega, Inc.), 1 μg human placental DNA (Sigma-Aldrich), 400 μM ATP, 400 μM [α^32P]UTP (0.11 Bq/fmol), 400 μM CTP, 400 μM GTP, 50 mM Tris-HCl, pH 8.0, 7 mM HEPES-NaOH, 70 mM (NH4)2SO4, 50 mM KCl, 12 mM MgCl2, 5 mM DTT, 0.1 mM EDTA, 0.08 mM phenylmethylsulfonyl fluoride, and 16% glycerol. Reaction components other than DNA and NTPs were pre-incubated 10 min at 30° C., DNA was added and reaction mixtures were incubated 15 min at 30° C., NTPs were added and reaction mixtures were incubated 60 min at 30° C. Reaction mixtures were spotted on DE81 filter discs (Whatman, Inc.; pre-wetted with water) and incubated 1 min at room temperature. Filters were washed with 3×3 ml Na2HPO4, 2×3 ml water, and 3 ml ethanol, using a filter manifold (Hoefer, Inc.). Filters were placed in scintillation vials containing 10 ml Scintiverse BD Cocktail (Thermo Fisher, Inc.), and radioactivity was quantified by scintillation counting (LS6500; Beckman-Coulter, Inc.).
as §2

[4] = test system: Enterobacter cloacae ATCC 13047; experiment: Antibacterial activity, broth microdilution, Enterobacter cloacae; type: cell-based; conditions: for MIC50: Enterobacter cloacae, ATCC13047
Source text: as §1

[5] = minimal concentration resulting in ≧50% inhibition of bacterial growth

## myxopyronin
Sal-resistant mutants
  cross-resistance of Sal-resistant mutants to the compound: do not exhibit cross-resistance

## salinamide B [SalB (2)]
Haemophilus influenzae
  antibacterial activity against Haemophilus influenzae: exhibit antibacterial activity
[1]
  antibacterial activity against Gram-positive bacterial pathogens: exhibit antibacterial activity
Vero E6 ATCC CRL1586; in words
  inhibition of growth of mammalian cells in culture: do not detectably inhibit growth
Vero E6 ATCC CRL1586; mammalian cells in culture
  MIC50 Vero E6 ATCC CRL1586: >100 µg/mL
Escherichia coli RNAP
  IC50: 1 µM
[2]
  inhibition of Gram-positive and Gram-negative bacterial RNAP in vitro: inhibits
Neisseria gonorrhoeae
  antibacterial activity against Neisseria gonorrhoeae: exhibit antibacterial activity
[3]; [5]
  MIC50 Escherichia coli D21f2toIC: 0.098 µg/mL
Pseudomonas aeruginosa
  antibacterial activity against Pseudomonas aeruginosa: exhibit antibacterial activity
Human RNAP I/II/III
  IC50: > 100 µM
Human RNAP I/II/III; in words
  inhibition of human RNAP I, II, and III: do not detectably inhibit
[4]; in words, Gram-negative bacterial pathogen
  antibacterial activity against Enterobacter cloacae: exhibit antibacterial activity
[4]; [5]
  MIC50 Enterobacter cloacae ATCC 13047: 6.25 µg/mL

## CCCCOC1(CO)/C=C/C(=O)NCC(=O)OC[C@@H]2NC(=O)[C@@H]([C@@H](C)O)NC(=O)[C@H](Cc3ccccc3)N(C)C(=O)[C@@H](NC(=O)[C@@H]([C@@H](C)CC)NC(=O)[C@@H](NC(=O)[C@H](C)[C@H](O)C(C)C)[C@@H](C)OC2=O)c2ccc(cc2)O[C@@H]1C (stereo partly drawn) [Sal-OBu B (5B)] ({Pentanoyl(2R-Me,3R-OH,4-Me)}-T[d(aIle)][X6][NMeF][d(aThr)]S; ester 1-C; linker 3-6 via G)
Escherichia coli RNAP
  IC50: > 25 µM

## CC[C@H](C)[C@H]1NC(=O)[C@@H](NC(=O)[C@H](C)[C@H](O)C(C)C)[C@@H](C)OC(=O)[C@@H]2COC(=O)CNC(=O)/C=C/[C@](O)(CNCCCNC(=O)OC(C)(C)C)[C@@H](C)Oc3ccc(cc3)[C@H](NC1=O)C(=O)N(C)[C@@H](Cc1ccccc1)C(=O)N[C@H]([C@@H](C)O)C(=O)N2 [Sal-NH(CH2)3NHBoc (7)] ({Pentanoyl(2R-Me,3R-OH,4-Me)}-T[d(aIle)][X5][NMeF][d(aThr)]S; ester 1-C; linker 3-6 via G)
Escherichia coli RNAP
  IC50: 0.6 µM
[3]
  MIC50: 1.56 µg/mL (≈ 1.31 µM)
[4]; [5]
  MIC50: 100 µg/mL (≈ 83.7 µM)

## CCCCOC[C@@]1(O)/C=C/C(=O)NCC(=O)OC[C@@H]2NC(=O)[C@@H]([C@@H](C)O)NC(=O)[C@H](Cc3ccccc3)N(C)C(=O)[C@@H](NC(=O)[C@@H]([C@@H](C)CC)NC(=O)[C@@H](NC(=O)[C@H](C)[C@H](O)C(C)C)[C@@H](C)OC2=O)c2ccc(cc2)O[C@@H]1C [Sal-OBu A (5A)] ({Pentanoyl(2R-Me,3R-OH,4-Me)}-T[d(aIle)][X2][NMeF][d(aThr)]S; ester 1-C; linker 3-6 via G)
Escherichia coli RNAP
  IC50: 6 µM
[3]
  MIC50: 1.56 µg/mL (≈ 1.43 µM)
[4]; [5]
  MIC50: 12.5 µg/mL (≈ 11.4 µM)
